Assay: Bubble test, corrosion inhibition performance in brine (LPR)
Conditions: Forties synthetic brine, 55° C., CO2 saturated
Procedure: Corrosion Inhibition Performance in Brine
The tests were carried out using the well-known “bubble test” method, see for instance the discussion in NACE International, Vol. 46, No. 5, pp 46-51 (May 2007), where the corrosion rate is monitored by linear polarisation (LPR). First a baseline corrosion rate in the medium is established, and then corrosion rates with different amounts of inhibitor added are measured.
The detailed conditions for the tests were as follows:
CO2 CO2 Saturated at ambient pressure (˜0.9 bara partial pressure)
Solution 100% Typical “Forties” (North Sea water) synthetic brine as shown below:
• Chloride=42.539 mg/l • Sulphate=0 mg/l • Barium=173 mg/l • Calcium=1.979 mg/l • Strontium=351 mg/l • Magnesium=377 mg/l • Sodium=24.973 mg/l • Potassium=341 mg/l • Bicarbonate=200 mg/l Electrode Fabricated from AISI 1018 (UNS G10180), polished to 600 grit finish, degreased, rinsed, and dried Inhibitor Concentration 4 hour precorrosion without inhibitor, then dose with 10 or 20 mg/kg of inhibitor and evaluate corrosion rate for at least 8 h, then add inhibitor so that the next level of total inhibitor dosage is reached according to Table 1. After each addition the corrosion rate is measured for at least 8 h. Gas and partial Ambient pressure test. Maximum partial pressure 1 pressure bara (less saturated water vapour pressure at test temperature). Corrosion Monitoring LPR±10 mV step perturbation with a 2-minute time constant. A Stearn-Geary constant of 25 mV was used to calculate corrosion rates from LPR data. Corrosion rates were monitored throughout each test with a measurement taken every 30 minutes. […] The corrosion inhibitor bases were formulated as follows prior to testing: 40% base product 4% glacial acetic acid 20% n-butanol 36% water The % protection was calculated from the following equation: % protection=(1−(x/y))*100 wherein x=corrosion rate in the presence of corrosion inhibitor (mm/year) • y=corrosion rate in the absence of corrosion inhibitor (mm/year)

**Q.** Which results are given for “C12-C16 Coco benzyl quaternary amine [Quaternary amine*]”?
**A.** % Protection (20 ppm inhibitor): −28.3%; % Protection (50 ppm inhibitor): 38.0%; % Protection (100 ppm inhibitor): 97.7%

Source: patent publication US8372336B2, “Polymeric corrosion inhibitors” (Akzo Nobel Chemicals International B.V., priority 2009, dated 2013)
